Experimental data published in US11879137B2, “Treatment of type 1 diabetes and autoimmune diseases or disorders” (THE CHILDREN'S MEDICAL CENTER CORPORATION, priority 2017, dated 2024).

Key:
Assay type in all cases: cell-based, human
CD34+ cells [1] = assay: qRT-PCR of PD-L1, CXCR4 and IDO-1 in prostaglandin-modulated CD34+ cells; conditions: for PD-L1 mRNA expression by RT-PCR: CD34+ cells upon modulation
Protocol: qRT-PCR. RNA was extracted from CD34+ cells using Direct-Zol™ RNA Kits (Zymo, Irvine, CA, USA) and Trizol Reagent (Invitrogen Carlsbad, CA), RNA quality was assessed by Multiskan™ GO Microplate spectrophotometer and the ratios of absorbance at 260 nm and 280 nm were assessed for all the samples. Only samples with RNA ratios within 1.9 were included in the present study. cDNA synthesis was made from purified total RNA by reverse transcription using High capacity cDNA Reverse Transcription RETROscript® Kit (Thermo Fisher Scientific, Waltham, MA, USA) followed by a pre-amplification using Taqman PreAmp Kit (Applied Biosystems) according to the manufacturer's instructions. qRT-PCR analysis was performed using TaqMan assays (Life Technologies, Grand Island, NY) containing PCR primers and TaqMan probes according to the manufacturer's instructions. Normalized expression values were determined using the ΔCt method. Quantitative reverse transcriptase polymerase chain reaction (qRT-PCR) data were normalized for the expression of GAPDH. qRT-PCR reactions were performed in triplicate in a 96-well format using an Applied Biosystems 7900HT fast real-time PCR instrument. Relative expression was calculated using the comparative threshold cycle method as previously described (23, 24). For two-group comparisons, a Student's t test was employed. Reported below are the main characteristics of the primers used: […]
Prostaglandin library screening. PGE2 has been described as a small molecule known to enhance the homing and engraftment of HSPCs. It was therefore sought to screen all known types of prostaglandins using the Prostaglandin Screening Library II, which contains 64 small molecules. Each small molecule contained in the library was first screened for its capacity to upregulate PD-L1 in human CD34+ cells isolated from T1D patients (FIG. 17A-17B). CD34+ cells isolated from T1D patients were cultured in StemSpan SFEMII and pulsed with each PG (prostaglandin) small molecule contained in the aforementioned library at a concentration of 10 μM at 24 and 48h. Using FACS analysis, the MFI (mean fluorescence intensity) of PD-L1 expression was calculated following treatment with each small molecule used to modulate CD34+ cells as compared to untreated/unmodulated CD34+ cells (FIG. 17B). A heat map was generated depicting the degree to which each PG small molecule affected PD-L1 expression on CD34+ cells (FIG. 17B), thus allowing for the evaluation of PG candidates. Based on its ability to modulate PD-L1 expression, PGE2 was selected as a candidate for further study; in addition, PGE2 has been described in the literature and has been tested in clinical trials as a potential therapy for enhancing HSPC engraftment following cord blood transplantation (21). Isolated CD34+ cells from healthy control patients (CTRL) and from T1D patients were cultured in StemSpan SFEMII and pulsed with 10 μM of PGE2 at 24 hours and 48 hours. […] It was therefore sought to perform a migration assay in order to assess the homing properties of PGE2-treated CD34+ cells (FIG. 17F).

CD34+ cells [2] = assay: Transwell migration assay toward SDF-1; conditions: SDF-1, 2 hours
Protocol: Migration assay. Transwell migration assays were performed on PGE2-modulated HSPCs compared to unmodulated HSPCs in the presence of 0 to 50 ng/ml SDF-1 (R&D Systems, Minneapolis, MN). In brief, cells were suspended in 0.5% BSA Phenol Red-Free RPMI and plated in the upper chambers of an HTS-Transwell-96-well permeable support plate (Corning, Acton, MA) and incubated at 37° C. in 5% CO2 for 2 hours. After 2 hours incubation, migrated cells were counted using BD TruCount (BD Biosciences) by flow cytometry.
(§1) Prostaglandin library screening. PGE2 has been described as a small molecule known to enhance the homing and engraftment of HSPCs. It was therefore sought to screen all known types of prostaglandins using the Prostaglandin Screening Library II, which contains 64 small molecules. Each small molecule contained in the library was first screened for its capacity to upregulate PD-L1 in human CD34+ cells isolated from T1D patients (FIG. 17A-17B). CD34+ cells isolated from T1D patients were cultured in StemSpan SFEMII and pulsed with each PG (prostaglandin) small molecule contained in the aforementioned library at a concentration of 10 μM at 24 and 48h. Using FACS analysis, the MFI (mean fluorescence intensity) of PD-L1 expression was calculated following treatment with each small molecule used to modulate CD34+ cells as compared to untreated/unmodulated CD34+ cells (FIG. 17B). […]

PD-L1 on CD34+ cells = assay: Confocal imaging of PD-L1 on PGE2-treated CD34+ cells; conditions: vs untreated CD34+ cells
Protocol: Immunofluorescence and confocal microscopy. Regulatory CD34+(PGE2-modulated) cells and unmodulated CD34+ cells isolated from peripheral blood of healthy controls were fixed in 4% PFA for 1h at 4 C, washed 3 times for 20 min in PBS, and cells were counterstained with blue fluorescent DAPI (1:10000, BioLegend, San Diego, CA) and anti-human PD-L1 (BD Biosciences). Cells were photographed under a 63× objective. Images were captured on a Leica SPSX system with an upright DM6000 microscope and AIR confocal microscope (Nikon Instruments, Melville, NY). Histology was evaluated by at least two expert pathologist (9).
as §1, with “CD34+ cells isolated from T1D patients were cultured in StemSpan SFEMII and pulsed with each PG (prostaglandin) small molecule contained in the aforementioned library at a concentration of 10 μM at 24 and 48h.” left out

Q: How did the “PD-L1 mRNA expression by RT-PCR” value (CD34+ cells [1]) turn out when CCCCC(C)(C)[C@H](O)/C=C/[C@H]1[C@H](O)CC(=O)[C@@H]1C/C=C\CCCC(=O)O [16,16-dimethyl PGE2] was run?
A: marked upregulation

Q: CCCCC[C@H](O)/C=C/[C@H]1[C@H](O)CC(=O)[C@@H]1C/C=C\CCCC(=O)O [PGE2, prostaglandin E2] was tested. Which “PD-L1 mRNA expression by RT-PCR” value (CD34+ cells [1]) did it give?
A: slight increase

Q: What about the “IDO-1 expression (mRNA)” value (CD34+ cells [1]; post-pharmacologic modulation) of the same compound?
A: remained unchanged

Q: What about the “increase of CXCR4 gene expression by RT-PCR” value (CD34+ cells [1]; vs untreated CD34+ cells) of the same compound?
A: 2 fold

Q: What about the “homing potential in migration assay” value (CD34+ cells [2]) of the same compound?
A: substantial increase

Q: And the “PD-L1 surface expression by confocal imaging” value (PD-L1 on CD34+ cells)?
A: upregulated
